Measurements taken from ChEMBL document CHEMBL4387737, “Synthesis of Isosteviol analogues as potential protective agents against Doxorubicin-induced cardiomyopathy in zebrafish embryos” (Bioorg Med Chem Lett, 2019).
Active and inactive are the calls of the source. The calls are words filed in the database; no cut-off is given here.

Tests used:
[1] = Toxicity in myl7:EGFP transgenic zebra fish embryo assessed as reduction in survival rate at 25 to 100 uM dosed at 24 hpf and measured 96 hpf; type: organism-based, Danio rerio; details: zebrafish, in vivo
Danio rerio [2] = experiment: Cardioprotective activity in myl7:EGFP transgenic zebra fish embryo assessed as recovery of in DOX-induced heart rate impairment at 100 uM dosed at 24 hpf and measured 72 hpf by fluorescent microscopy; type: functional, organism-based
Danio rerio [3] = experiment: Cardioprotective activity in myl7:EGFP transgenic zebra fish embryo assessed as decrease in DOX-induced morphological changes at 100 uM dosed at 24 hpf and measured 72 hpf by fluorescent microscopy; type: functional, organism-based
Danio rerio [4] = experiment: Cardioprotective activity in myl7:EGFP transgenic zebra fish embryo assessed as decrease in DOX-induced pericardial edema at 100 uM dosed at 24 hpf and measured 72 hpf by fluorescent microscopy; type: functional, organism-based
Danio rerio [5] = experiment: Cytoprotection in myl7:EGFP transgenic zebra fish embryo assessed as reduction in DOX-induced lethal toxicity by measuring LC50 dosed at 24 hpf and measured 96 hpf (reference value: 51.56 uM); type: functional
Danio rerio [6] = experiment: Cardioprotective activity in myl7:EGFP transgenic zebra fish embryo assessed as recovery of in DOX-induced shortening fraction at 100 uM dosed at 24 hpf and measured 72 hpf by fluorescent microscopy; type: functional, organism-based
Danio rerio [7] = experiment: Cardioprotective activity in myl7:EGFP transgenic zebra fish embryo assessed as decrease in DOX-induced cardiac dysfunction at 100 uM dosed at 24 hpf and measured 72 hpf by fluorescent microscopy; type: functional, organism-based
[8] = Toxicity in myl7:EGFP transgenic zebra fish embryo assessed as reduction in survival rate dosed at 24 hpf and measured 96 hpf; type: organism-based, Danio rerio; details: zebrafish, in vivo

C[C@]12CC[C@H]3[C@]4(C)CCC[C@@](C)(C(=O)O)[C@H]4CC[C@@]3(C1)[C@H](CO)C2=O
Activity [1]: Non-Toxic
Activity (Danio rerio [2]): inactive
Activity (Danio rerio [3]): inactive
Activity (Danio rerio [4]): inactive
LC50 (Danio rerio [5]): 74.83 µM
Activity (Danio rerio [6]): inactive
Activity (Danio rerio [7]): inactive

C[C@]12CC[C@H]3[C@]4(C)CCC[C@@](C)(C(=O)O)[C@H]4CC[C@@]3(C1)[C@H](CO)[C@H]2O
Activity [1]: Non-Toxic
Activity (Danio rerio [2]): Active
Activity (Danio rerio [3]): Active
Activity (Danio rerio [4]): Active
LC50 (Danio rerio [5]): 68.5 µM
Activity (Danio rerio [6]): Active
Activity (Danio rerio [7]): Active

C[C@@]12CC[C@@H]3[C@@](CC[C@H]4[C@@]3(C)CCC[C@@]4(C)C(=O)OCCCCCCO)(C[C@H]1O)C2
LD [8]: 50 to 100 µM
Activity (Danio rerio [5]): inactive

C[C@]12CC[C@H]3[C@]4(C)CCC[C@@](C)(C(=O)O)[C@H]4CC[C@@]3(C1)[C@H](C=O)[C@H]2O
Activity [1]: Non-Toxic
Activity (Danio rerio [2]): Active
Activity (Danio rerio [3]): Active
Activity (Danio rerio [4]): Active
LC50 (Danio rerio [5]): 92.61 µM
Activity (Danio rerio [6]): Active
Activity (Danio rerio [7]): Active

C[C@@]12CC[C@@H]3[C@@](CC[C@H]4[C@@]3(C)CCC[C@@]4(C)C(=O)OCCO)(C[C@H]1O)C2
Activity (Danio rerio [5]): inactive

C[C@@]12CC[C@@H]3[C@@](CC[C@H]4[C@@]3(C)CCC[C@@]4(C)C(=O)OCCCCCC(=O)O)(C[C@H]1O)C2
LD [8]: 50 to 100 µM
Activity (Danio rerio [5]): inactive

C[C@@]12CC[C@@H]3[C@@](CC[C@H]4[C@@]3(C)CCC[C@@]4(C)C(=O)OCCCCCCCC(=O)O)(C[C@H]1O)C2
LD [8]: 50 to 100 µM
Activity (Danio rerio [5]): inactive

C[C@]12CC[C@H]3[C@]4(C)CCC[C@@](C)(C(=O)O)[C@H]4CC[C@@]3(C1)[C@H](C(=O)O)[C@H]2O
Activity [1]: Non-Toxic
Activity (Danio rerio [2]): Active
Activity (Danio rerio [3]): Active
Activity (Danio rerio [4]): Active
LC50 (Danio rerio [5]): 66.62 µM
Activity (Danio rerio [6]): Active
Activity (Danio rerio [7]): Active

C[C@@]12CC[C@@H]3[C@@](CC[C@H]4[C@@]3(C)CCC[C@@]4(C)C(=O)OCCCCCCCCO)(C[C@H]1O)C2
LD [8]: 50 to 100 µM
Activity (Danio rerio [5]): inactive

C[C@]12CC[C@H]3[C@]4(C)CCC[C@@](C)(C(=O)O)[C@H]4CC[C@@]3(C1)[C@H](C=O)C2=O
Activity [1]: Non-Toxic
Activity (Danio rerio [2]): inactive
Activity (Danio rerio [3]): inactive
Activity (Danio rerio [4]): inactive
Activity (Danio rerio [6]): inactive
Activity (Danio rerio [7]): inactive
